How the values were obtained:
[1] = system: B10.PL mice with acute EAE; assay: Treatment of MBP-induced acute EAE in B10.PL mice, daily clinical EAE disability score; format: in vivo; design: key to cumulative disability (sum of daily disability scores; mean) / Cumulative disability / EAE severity (initial) / Remission (minimum) / EAE severity (final) / EAE severity (decrease): EAE score 0 = normal to 5 = moribund; cumulative = sum of daily scores
Protocol: Breeding pairs of B10.PL-H2^uH2-T18^a/(73NS)/SnJ (hereafter B10.PL) mice were purchased from the Jackson Laboratory (Bar Harbor, Me.). The experimental B10.PL mice were either bred in the pathogen-free mouse colony at the University of Wisconsin Department of Biochemistry, or purchased from the Jackson Laboratory. Mice were housed at 23° C. with 40-60% humidity, 12 hr light-dark cycles, and ad libidum access to water. Unless stated otherwise, the mice were fed Lab Diet #5008 (PMI Nutrition International, Inc., Brentwood, Mo.) containing 0.33 μg/d vitamin D3 and 1% calcium. Experiments used male and female mice aged 6-8 wks (age- and sex-matched within experiments). The University of Wisconsin College of Agricultural and Life Sciences Institutional Animal Care and Use Committee approved all of the experimental protocols.
Bovine myelin basic protein (Sigma Chemical Co., St. Louis, Mo.) was dissolved at 2 mg/mL in 0.1 N acetic acid and emulsified with Complete Freund's adjuvant containing heat-killed Mycobacterium tuberculosis H37 Ra solution (Difco). Each mouse was injected subcutaneously with 0.1 mL emulsion in each hind flank (400 micrograms of MBP per mouse). On the day of immunization and again 2 days later, 200 nanograms of pertussis toxin was injected into the peritoneum. Thereafter, clinical EAE signs were scored daily as follows: 0, normal; 1, limp tail; 1.5, partial paralysis of one hind limb; 2, partial paralysis of both hind limbs; 2.5 partial paralysis of one hind limb and complete paralysis of one hind limb; 3, paralysis of both hind limbs; 4, hind and fore limb paralysis; 5, moribund.
The vitamin D3 and 1,25-(OH)2D3 were obtained from Sigma Chemical Co. The vitamin D3 was dissolved in safflower oil and stored in the dark at 5° C. The 1,25-(OH)2D3 was dissolved in 100% ethanol (1 mg/mL) and stored in the dark under nitrogen gas at −20° C. The concentration of 1,25-(OH)2D3 was determined by spectral analysis. Animals with stage 2.3±0.3 were randomized into treatment groups. The details of the treatments are given in the figure legends and table footnotes. The synthetic diet used in some experiments was formulated to contain all essential nutrients except vitamin D3 and was prepared exactly as we described (Spach and Hayes, 2005, J. Immunol. 175:4119-4126). For experiments using supplementary vitamin D3, the placebo group was fed the synthetic diet ad libidum without added vitamin D3, whereas the vitamin D3-supplemented group was fed the synthetic diet ad libidum with vitamin D3 added in an amount to provide 1 μg/d, calculated based on a daily measured consumption of 4.0 g dry weight of diet per mouse. Fresh synthetic diet was provided three times per week. At several times during the study, mice were weighed and blood samples were obtained from the tail vein. At the conclusion of the study, the mice were euthanized, a blood sample was obtained, perfusion was done, and the spinal cords and optic nerves were removed. The spinal cords were flash frozen with liquid nitrogen and stored at −70° C. prior to 1,25-(OH)2D3 extraction. Alternatively, the spinal cords were divided into 6 equal sections, aligned vertically, snap frozen in O.C.T. compound (Sakura Finetek USA, Torrance, Calif.) and stored at −70° C. for histopathology. The blood was clotted, centrifuged, and the decanted serum was frozen at −70° C. prior to analysis.
Individual mice were analyzed and the mean and SD were calculated for each group of mice. Experiments were repeated at least once. The significance of differences between the group means was determined using the Mann-Whitney test (n≦16), Student's t-test (n>16), or Chi-squared test (binomial data); p<0.05 was considered significant.

[2] = Serum calcium analysis; format: in vivo, mouse; settings: mice with EAE, 1 μg/day vitamin D3, end of the 28 day study
Protocol: Blood was collected, clotted, and centrifuged (2,000×g for 10 min) at 6° C. The serum was decanted and stored at −20° C. The samples, standards, and buffer blanks (2 μL each) were aliquoted into duplicate wells of a 96-well plate. The calcium detection reagent was prepared according to the manufacturer's directions (Sigma Diagnostics. St. Louis, Mo.), and 0.25 mL was added to each well. The absorbance at 570 nm less the blank was measured 10 to 30 min later. The Ca^++ mmol/L serum was determined from a standard curve.

[3] = Serum 25-(OH)D3 radioimmunoassay; settings: mice with EAE (score 1.5±0.5), 1 μg/day vitamin D3, end of the 28 day study
Protocol: The serum was extracted and the 25-(OH)D3 (DiaSorin, Stillwater, Minn.) and calcitriol (Nichols Institute Diagnostics, San Juan Capistrano, Calif.) concentrations were determined in duplicate with radioimmunoassay kits according to the manufacturer's protocols.

[4] = system: MS; settings: cited from earlier work
[5] = female and male B10.PL mice, chow-fed, 0.5 (female) or 1.0 (male) nmol injected once, 14 days post treatment

For `C[C@H]1C[C@@H]2[C@H]([C@@H](O)C[C@@]3(C)[C@H]2CC[C@]3(O)C(=O)CO)[C@@]2(C)C=CC(=O)C=C12` [Methyl-prednisolone], the “mice in which remission was induced” value ([1]; chow-fed male and female mice with EAE (score 2.3±0.4), 200 μg/d oral methyl-prednisolone) was 100%, the time to remission ([1]; chow-fed male and female mice with EAE, 200 μg/d oral methyl-prednisolone) was 6 ± 2 days and the Cumulative disability [1, 5] was 24.8 ± 6.9. For the same compound, the “EAE severity (decrease)” value [1, 5] was 0.8 ± 0.7, the “Remission (%)” value [1, 5] was 40% and the “Remission (days in)” value [1, 5] was 3.0 ± 4.1 days. For the same compound, the “Remission (days to)” value [1, 5] was 3.0 ± 0.0 days and the “EAE severity (initial)” value ([1]; female and male B10.PL mice, chow-fed, 0.5 (female) or 1.0 (male) nmol of steroid compound injected once, score at randomization) was 2.0 ± 0.0.

In the case of `C=C1CC[C@H](O)C/C1=C/C=C1\CCC[C@]2(C)[C@@H]([C@H](C)CCCC(C)C)CC[C@@H]12` [vitamin D3], the serum calcium levels [2] is reported as 9.6 ± 1.5 mg/dL, the “effect on clinical disability in mice with EAE” value ([1]; 1 μg/day vitamin D3, 28 day study) is reported as “no effect” and the “cumulative disability (sum of daily disability scores; mean)” value ([1]; mice with EAE, 1 μg/day vitamin D3, 28 day study, both groups) is reported as 71±18. The mortality ([1]; mice with EAE, 1 μg/day vitamin D3, 28 day study, both groups (supplemented and un-supplemented)) was 9-14% and the “serum 25-(OH)D3” value [3] was 8217 nmol/L.

In the case of “Natalizumab: an integrin-specific monoclonal antibody (mAb)”, the adverse risks ([4]; human, in vivo) is listed as “increased the risk of cardiac problems and fatal progressive multifocal leukoencephalopathy” and the “slowing of disability progression” value ([4]; over two years) is listed as about 42%.

For glatiramer acetate, the disability progression ([4]; RRMS, PPMS or SPMS patients) is listed as “did not slow disability progression” and the “reduction of the relapse rate” value ([4]; some relapsing-remitting MS (RRMS)) is listed as about 35%.

— US20090221538A1, “METHODS OF TREATING MULTIPLE SCLEROSIS BY ADMINISTERING PULSE DOSE CALCITRIOL” (priority 2008, published 2009)
